The values that follow come from ChEMBL document CHEMBL3758167, “4H-Thieno[3,2-c]chromene based inhibitors of Notum Pectinacetylesterase” (Bioorg Med Chem Lett, 2016).

Data set [1] can be described thus: in vivo. Particulars: mouse, iv, 1 mg/kg.
Data set [2] in a line: in vivo. Particulars: mouse, po, 10 mg/kg.
Data set [3] can be described thus: in vivo. Particulars: mouse, po, 10 mg/kg. This is another data set of the same source.
The nature of data set [4]: in vivo. Particulars: mouse, iv, 1 mg/kg. This is another data set of the same source.
A short description of data set [5]: in vivo. Particulars: mouse, po, 10 mg/kg. The source holds these as a separate data set.

In the case of `O=C(O)c1cc2c(s1)-c1ccccc1CC2`, the clearance in the data set “in vivo [1]” was 2.4 mL/min/kg. In the data set “in vivo [2]”, this compound gave a peak concentration (Cmax) of 64 µM. The bioavailability in the data set “in vivo [3]” is 52%. Moreover, in “in vivo [4]”, the Vd was 0.57 L/kg. The compound further displayed an AUC in the data set “in vivo [5]” of 158 µM·h.
